Assay results reported in US20230257653A1, “FRACTAL FORMULATIONS” (NANOGYRE Sprl., priority 2020, published 2023).
≈ marks a conversion by molar mass, not a printed value. Where two headings read alike, the source gives them in different places.

Tests used:
[1] = Solubilization of hydrophobic cargo in betaine/Polysorbate 80/water liquid crystal, centrifugation 4000 rpm
Procedure: Mixing 2 ml of distilled water and 40 μL of Polysorbate 80, then adding 400 mg of pure curcumin, manually mixing and then adding 2 g of betaine all again mixed by vigorous manual stirring. The mixture of the 4 ingredients is then subjected for 20 minutes to a centrifugation of 4000 rpm.
(§1) The mixture of the 4 ingredients is then subjected for 30 minutes to a centrifugation of 4000 rpm.
The mixture of the 4 ingredients is then subjected for 40 minutes to a centrifugation of 4000 rpm.
as §1
Mixing 2 ml of distilled water and 35 μL of Polysorbate 80, then adding 50 mg of Clofazimine, mixing manually and then subjecting to a centrifugation of 4000 rpm and then adding 2 g of betaine all again mixed by vigorous manual stirring. The mixture of the 4 ingredients is then subjected for 30 minutes to a centrifugation of 4000 rpm.

[2] = DLS (Dynamic Light Scattering) particle size of resolubilized dry powder, Zetasizer; type: physicochemical; settings: 100 mg dry powder in 100 ml pure water, kept in the dark 14 days
Procedure: 100 mg of dry powder of Curcumin of the preceding example are dissolved in 100 ml of pure water before being kept in the dark for 14 days. This solution is then evaluated with DLS (Dynamic Light Scattering) in a Zetasizer apparatus (University of Namur).

[3] = substance alone; cited from earlier work
[4] = Visual stability of the mother solution diluted in distilled water (pH 7) or acetic acid (pH 2.2); type: physicochemical; settings: absence of light, 24 h
Procedure: (§2) 400 μl of the solution produced are taken and poured into a tube of 5 ml of distilled water (pH 7).
400 μl of the solution produced are taken and poured into a tube of 5 ml of acetic acid (pH 2.2).
as §2
200 μl of the solution produced are taken and poured into a tube of 5 ml of distilled water (pH 7).
200 μl of the solution produced are taken and poured into a tube of 5 ml of acetic acid (pH 2.2).
250 μl of the solution produced are taken and poured into a tube of 5 ml of distilled water (pH 7).
250 μl of the solution produced are taken and poured into a tube of 5 ml of acetic acid (pH 2.2).

[5] = Storage stability of the mother solution (deposition); settings: no ethanol
[6] = octanol/water partition coefficient; cited from earlier work
[7] = Redissolution of dried, ground liquid crystal powders and visual pH variation test; type: physicochemical; settings: for changes of resolubilized dry powder solution over time: absence of light, 24 h
Procedure: The remaining solution of the preceding example is poured into a glass Petri dish (diameter 35 mm) and subjected to drying at 60° C. in a hot air dehydrator (Stockli).
The dry product is then ground until it reaches±50 Mesh and stored in the absence of light and moisture for 10 days.
Next, 100 mg of dry powder are taken and poured into a tube of 5 ml of distilled water (pH 7).
Next, 100 mg of dry powder are taken and poured into a tube of 5 ml of acetic acid (pH 2.2).
Then this acidic solution is brought to an alkaline pH of 8 by adding sodium bicarbonate, in order to mimic the conditions of the pH differences encountered in the stomach and then the intestine.

[8] = mother solution poured into 5 ml acetic acid (pH 2.2)
[9] = mother solution poured into 5 ml distilled water (pH 7)

| non-solubilized fraction remaining in the bottom of the tube (pellet/base) [1] | concentration of mother solution weighted for the pellet/base ([1]; 2 ml water, 40 μL Polysorbate 80, 2 g betaine, no ethanol) | average particle size of the solution [2] | polydispersity [2] | SMILES | estimated concentration of mother solution after centrifugation [1] | factor by which solubility in water was multiplied [1] | Solubility in Water [3] | changes of diluted solution over time [4, 8] | changes of diluted solution over time [4, 9] | estimated concentration of mother solution after centrifugation ([1]; 2 ml water, Polysorbate 80, 2 g betaine, no ethanol) | stability of mother solution on storage [5] | solubilization result (visual) [1] | Log P [6] | dissolution of dry powder ([7]; 100 mg dry powder (stored 10 days) in 5 ml acetic acid (pH 2.2)) | dissolution of dry powder ([7]; 100 mg dry powder (stored 10 days) in 5 ml distilled water (pH 7)) | changes of resolubilized dry powder solution over time ([7]; 5 ml acetic acid (pH 2.2)) | changes of resolubilized dry powder solution over time ([7]; 5 ml distilled water (pH 7)) | stability of the acidic solution brought to alkaline pH ([7]; pH 2.2 solution brought to pH 8 with sodium bicarbonate) |
| --- | --- | --- | --- | --- | --- | --- | --- | --- | --- | --- | --- | --- | --- | --- | --- | --- | --- | --- |
| 30-40% | 60000 µg/mL | ≤ 10 nanometers | very low | COc1cc(/C=C/C(=O)CC(=O)/C=C/c2ccc(O)c(OC)c2)ccc1O [Curcumin] | 80 mg/mL | 10,000 | 5.75 µg/mL (≈ 15.6 µM) | no changes over time | no changes over time | – | – | – | – | – | – | – | – | – |
| – | – | – | – | C=C(C)[C@@H]1CCC(C)=C[C@H]1c1c(O)cc(CCCCC)cc1O [Cannabidiol] | – | – | – | no changes over time | no changes over time | 47 mg/mL | remained stable without any deposition, or modification for a year | – | – | – | – | – | – | – |
| – | – | – | – | CC(C)/N=c1\cc2n(-c3ccc(Cl)cc3)c3ccccc3nc-2cc1Nc1ccc(Cl)cc1 [Clofazimine] | 14.7 mg/mL | 9730 | 1.51 µg/mL (≈ 3.19 µM) | no changes over time | no changes over time | – | – | completely solubilized | 7.39 | immediately solubilizes | immediately solubilizes | no changes over time | no changes over time | remains stable without any precipitation or modification |
